We go through 3 compounds from publication PMC10592352 (Cell chemical biology, 2023).

SMILES strings stand for the structures.

Data set [1] deals with SK-N-BE(2)c neuroblastoma xenograft. Description: Xenograft tumor growth. The settings on record: 40 mg/kg twice daily.
The next data set can be described thus: Oral PK study in mice. It counts as in vivo, ES1e/SCID mice.
Data set [2] relates to H82 small-cell lung cancer xenograft. Description: Xenograft tumor growth. The settings on record: 40 mg/kg twice daily, oral.
Data set [3] concerns more than 70 cancer cell lines. Description: Growth inhibition across cancer cell lines. It is filed as cell-based. The settings on record: read-out: median concentration to achieve 50% growth inhibition (GI50).
Data set [4] can be described thus: GLP-controlled toxicity study. Further details: species or system mice. As to conditions: mouse, in vivo.
Data set [5] concerns MDA-MB-468 breast cancer xenograft. Description: Xenograft tumor growth. As to conditions: MDA-MB-468 xenograft, 40 mg/kg twice daily, oral.
In the next data set the target is PCNA (Homo sapiens, UniProt P12004). Description: Thermal denaturation. It counts as binding. As to conditions: dose-dependent, largest shift.
For data set [6], the system named is human PBMCs, small airway epithelial cells (hSEAC), neural crest stem cells (7SM0032). Description: Growth of nonmalignant cells. It counts as cell-based.
Data set [7] in a line: GLP-controlled toxicity study. Further details: species or system dogs. The settings on record: dog, in vivo.
Data set [8] relates to Salmonella tester strains TA98 and TA100. Description: Ames test. As to conditions: TA98 frameshift, TA100 base pair substitution.
Data set [9] can be described thus: Concentration reached in aqueous buffer for co-crystallization. It is filed as physicochemical. As to conditions: aqueous buffer with 10% DMSO.
For data set [10] the following is noted: ES1e mice, oral, 40 mg/kg; cited from earlier work.

Chain of PCNA (P12004 whole entry): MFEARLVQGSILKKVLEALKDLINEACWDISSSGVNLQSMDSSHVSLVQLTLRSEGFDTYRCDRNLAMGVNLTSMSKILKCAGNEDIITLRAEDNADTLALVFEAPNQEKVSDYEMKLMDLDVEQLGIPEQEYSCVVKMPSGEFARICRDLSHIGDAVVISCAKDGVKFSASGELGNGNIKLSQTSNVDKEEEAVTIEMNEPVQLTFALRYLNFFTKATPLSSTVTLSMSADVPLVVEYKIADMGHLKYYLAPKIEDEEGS

Regarding `COc1cccc(Oc2ccccc2NC(=O)CNC(=O)c2cccc3ccccc23)c1` [AOH1996], the “tumor burden versus vehicle” value in data set [1] (SK-N-BE(2)c xenograft, oral) is reported as “significantly reduced the tumor burden”; in [2] it was “significantly reduced the tumor burden”; in [5], “significantly reduced the tumor burden”. The “death and body weight in tumor studies” value in data set [1] (xenograft-bearing ES1e/SCID mice) is “did not cause any death or significant weight loss”. In addition, the “absorption into the circulatory system” value in “Oral PK study in mice” (animals, data not shown) was ~90%. Moreover, the “increase in area under the curve (AUC) versus AOH1160” value in the data set “Oral PK study in mice” (mice, 40 mg/kg) is recorded as ~4%. Also, the “increase in half-life versus AOH1160” value in the data set “Oral PK study in mice” (mice, 40 mg/kg) is recorded as ~ 27%. In the data set “Oral PK study in mice” (mice, 40 mg/kg), the “increase in peak concentration (Cmax) versus AOH1160” value is on record as ~40%. Besides, the GI50 in data set [3] was ~300 nM. Also, the no-observed-adverse-effect level (NOAEL) (usually the highest dose or exposure tested at which no adverse effect was seen) at 4 weeks in [4] is ≥ 250 mg/kg; in data set [7], 75 mg/kg. Also, the “shift of protein melting curves” value at PCNA was ≤ 1.5 °C. Besides, in data set [6], the “concentration not significantly toxic to nonmalignant cells” value is recorded as “at least 10 μM”. Further, the “mutagenicity in Ames test” value in [8] was “does not cause frameshift or base pair substitution”.
For the compound `COc1cccc(Oc2ccccc2NC(=O)[C@H](CCC(=O)O)NC(=O)c2cccc3ccccc23)c1` [AOH1996LE], the “concentration in aqueous buffer” value in data set [9] worked out at 4000 µM.
For the compound `O=C(CNC(=O)c1cccc2ccccc12)Nc1ccccc1Oc1ccccc1` [AOH1160], in data set [10], the half-life – broadly, how long it takes for the measured level to halve – is reported as 3.4 h.
